Positions of bridges follow the written chain, without caps; N, C: chain ends. Residues, ends and D or L forms follow the SMILES beside them. No end group written: not given here.
Columns and labels:
[1] = system: Chung rats; experiment: In vivo model of neuropathic pain (Chung model, Example 4); design: species or system rat; conditions: oral, subcutaneous and/or intramuscular administration
Text: This study was undertaken to assess the analgesic effect of the peptides described herein on neuropathic pain in vivo using a nerve constriction model in Chung rats. Briefly, adult male Sprague-Dawley rats, 8-9 weeks old, weighing 220-250 g at the time of surgery, were purchased from Charles River UK Ltd.
The animals were housed in groups of 4 in an air-conditioned room on a 12-hour light/dark cycle. Food and water were available ad libitum. They were allowed to acclimatise to the experimental environment for three days by leaving them on a raised metal mesh for at least 40 min. The baseline paw withdrawal threshold (PWT) was examined using a series of graduated von Frey hairs for 3 consecutive days before surgery and re-assessed on the 6th to 8th day after surgery and on the 12th to 14th day after surgery before drug dosing.
Each rat was anaesthetized with 5% isoflurane mixed with oxygen (2 L per min) followed by an intramuscular (i.m.) injection of ketamine 90 mg/kg plus xylazine 10 mg/kg. The back was shaved and sterilized with povidone-iodine. The animal was placed in a prone position and a para-medial incision was made on the skin covering the L4-6 level. The L5 spinal nerve was carefully isolated and tightly ligated with 6/0 silk suture. The wound was then closed in layers after a complete hemostasis. A single dose of antibiotics (Amoxipen, 15 mg/rat, i.p.) was routinely given for prevention of infection after surgery. The animals were placed in a temperature-controlled recovery chamber until fully awake before being returned to their home cages.
The vehicle (1% DMSO in PBS) or peptide was administrated intramuscularly (i.m.) into the leg of the side contralateral to the site of injury. Dosing was carried out by a second experimenter. […]
Each group had 8 animals. […] The lowest amount of force required to induce reliable responses (positive in 3 out of 5 trials) was recorded as the value of PWT.
The drug test was carried out on the 12th to 14th day after surgery. PWT were assessed before, 1, 2 and 4 hours following drug or vehicle administration. […]

[2] = molecular target: recombinant LanCL1 (rLanCL1) (Homo sapiens, UniProt O43813); experiment: biochemical; format: binding
Sequence of recombinant LanCL1 (rLanCL1) (O43813 whole entry, species assumed): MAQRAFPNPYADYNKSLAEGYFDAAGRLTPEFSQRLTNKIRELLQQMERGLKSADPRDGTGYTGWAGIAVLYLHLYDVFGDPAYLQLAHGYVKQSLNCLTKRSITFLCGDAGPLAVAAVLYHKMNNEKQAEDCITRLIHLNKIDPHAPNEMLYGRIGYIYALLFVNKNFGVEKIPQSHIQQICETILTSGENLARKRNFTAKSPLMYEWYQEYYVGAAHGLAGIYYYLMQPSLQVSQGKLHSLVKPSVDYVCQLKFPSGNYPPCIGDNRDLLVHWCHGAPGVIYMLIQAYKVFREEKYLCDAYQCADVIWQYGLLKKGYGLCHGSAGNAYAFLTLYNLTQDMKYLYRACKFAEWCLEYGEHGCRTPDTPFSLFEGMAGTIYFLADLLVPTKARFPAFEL
Protocol: Dry pellets of LANCL1 previously photolabelled with photoprobes in the presence of different peptides or PBS/DMSO vehicle were resuspended in 30 μL SDS loading buffer (Bio Rad's XT Sample Buffer containing 2.5% v/v 2-mercaptoethanol) and heated (60° C., 30 min). Proteins were resolved using SDS-PAGE (4-15% Criterion™ TGX Stain-Free™ Protein Gel, Bio Rad) and analyzed by in-gel fluorescence scanning using a ChemiDoc™ MP Imaging System (Bio Rad) with a green LED light as an excitation source and a BP600/20 nm emission filter. After in-gel fluorescence scanning, gels were stained with Coomassie blue to ensure the same amount of protein sample was loaded in each lane and imaged with the ChemiDoc™ MP Imaging System. Photoincorporation of each photoprobe in LANCL1 was quantitatively assessed by measuring the fluorescent intensity of the corresponding gel band using Image lab software (Bio Rad) and normalizing this value against the intensity value of LANCL1 gel band stained with Coomassie blue to control for loading differences.
(SEQ ID NO:22) from recombinant LanCL1 (rLanCL1).

[3] = system: A549 cells; experiment: A549 proliferation + stress assay (restoration of viability of Taxol-treated cells, CellTiter-Glo); format: cell-based, human; conditions: for Estimated Activity in A549 proliferation + stress assay: 350 μM Taxol, 16 hours, peptide 1-100 μM; for restoration of A549 viability: Taxol-treated A549 cells
Protocol: An assay was developed that involves stressing cells with a dose of the chemotherapeutic agent, Taxol, that causes a 50% inhibition of cell viability when compared to untreated cells. Peptides were then added to the cell cultures at increasing concentrations to assess their ability to restore the viability of the Taxol-treated cells.
Briefly, A549 cells were cultured in opaque-walled multiwell plates with 50000 A549 cells/well in culture medium (DMEM medium ref 11960-044 Thermoscientific, +10% FBS ref 10270-106 Gibco, Thermoscientific, +1% Na pyruvate ref S8636-100 ML, Sigma, +1%, Glutamax ref35050061, Thermoscientific, +1% Penicillin-Streptomycin, ref 11074440001, Sigma) 100 μl per well for 96-well plates. Control wells containing medium without cells were used to obtain a value for background luminescence. Cells were incubated at 37° C. in 5% CO2 overnight.
100 μL of medium+DMSO+peptides or medium+Taxol+peptides (at the different concentrations) were added to each well and incubated for 16 hours at 37° C. 5% CO2.
Cell morphology, viability and confluency were assessed by phase contrast microscopy. The CellTiter-Glo® Luminescent Cell Viability Assay (G7571, Promega—a homogeneous method to determine the number of viable cells in culture based on quantitation of the ATP present) was then used to quantify the number of metabolically active cells, according to the manufacturer's instructions. 100 μl volume of CellTiter-Glo® Reagent was added to the 100 μL volume of cell culture medium present in each well, Contents were mixed for 2 minutes on an orbital shaker to induce cell lysis and after incubating the plates at room temperature for 10 minutes to stabilize luminescent signal luminescence was recorded with an integration time of 0.5 seconds using a CLARIOstar multi well luminometer (BMG Labtech)

[4] = system: HKx31 (H3N2); format: in vivo, mice; design: key to PMN activity score / Viral titre activity score / BAL IL-6 activity score: 0: inactive; 1: less active than the peptide of SEQ ID NO:38; 2: comparable or more active than the peptide of SEQ ID NO:38; conditions: for IL-6 levels in the BAL fluid / viral titres: 10 mg/kg single dose; for viral titres: day 3; for BAL IL-6 activity score / PMN activity score / Viral titre activity score: mouse, in vivo, 10 mg/kg; for reducing the PMN infiltrate in BAL fluid, compared with the peptide of SEQ ID NO:38: single 10 mg/kg dose

## CC(C)[C@@H]1NC(=O)[C@H](CO)NC(=O)[C@H](CCCNC(=N)N)NC(=O)[C@@H](N)CSSC[C@@H](C(=O)NCC(=O)O)NC(=O)[C@H](CO)NC(=O)CNC(=O)[C@H](CCC(=O)O)NC1=O [compound 3] (H-CRSVEGSCG-OH; disulfide 1-8; N-terminus and C-terminus assumed)
[1]
  neuropathic pain in the Chung model: reduced neuropathic pain
[2]
  EC50: ~150 µM

## QEQLERALNSS [compound 37]
[2]
  EC50: 100 to 200 µM

## CC(C)C[C@@H]1NC(=O)[C@H](C)NC(=O)[C@H](CCCNC(=N)N)NC(=O)[C@H](CCC(=O)O)NC(=O)[C@H](CC(C)C)NC(=O)[C@H](CCC(N)=O)NC(=O)[C@H](CCC(=O)O)NC(=O)[C@H](CCC(N)=O)NC(=O)[C@@H](N)CSSC[C@@H](C(=O)O)NC(=O)[C@H](CO)NC(=O)[C@H](CO)NC(=O)[C@H](CC(N)=O)NC1=O [compound 38] (H-CQEQLERALNSSC-OH; disulfide 1-13)
[2]
  EC50: 50 to 100 µM

## CC[C@H](C)[C@@H]1NC(=O)[C@H](CCCNC(=N)N)NC(=O)[C@@H](N)CSSC[C@@H](C(=O)O)NC(=O)[C@H](CC(N)=O)NC(=O)[C@H](CC(N)=O)NC(=O)[C@H](CC(N)=O)NC(=O)[C@H](Cc2c[nH]cn2)NC(=O)[C@H]([C@@H](C)CC)NC1=O [compound 24] (H-CRIIHNNNC-OH; disulfide 1-9)
[2]
  EC50: 100 to 200 µM

## 10 (SCRSRPVESSC; disulfide 2-11) [compound 10]
[1]
  neuropathic pain in the Chung model: reduced neuropathic pain
[3]
  Estimated Activity in A549 proliferation + stress assay: STRONG (clear dose-dependent restoration of cell viability from 1-5 μM upwards)
  restoration of A549 viability: restore A549 viability

## CC(C)[C@@H]1NC(=O)[C@@H]2CCCN2C(=O)[C@H](CCCNC(=N)N)NC(=O)[C@H](CO)NC(=O)[C@H](CCCNC(=N)N)NC(=O)[C@@H](N)CSSC[C@@H](C(=O)N[C@@H](CO)C(=O)O)NC(=O)[C@H](CO)NC(=O)[C@H](CO)NC(=O)[C@H](CCC(=O)O)NC1=O [compound 14] (H-CRSRPVESSCS-OH; disulfide 1-10; N-terminus and C-terminus assumed)
[3]
  Estimated Activity in A549 proliferation + stress assay: STRONG (clear dose-dependent restoration of cell viability from 1-5 μM upwards)
[2]
  EC50: ~100 µM

## 9 (RSVEGS) [compound 9]
[4]
  IL-6 levels in the BAL fluid: as effective
  viral titres: effective
  BAL IL-6 activity score: 2
  PMN activity score: 2
  Viral titre activity score: 2
  reducing the PMN infiltrate in BAL fluid, compared with the peptide of SEQ ID NO:38: as effective
[3]
  Estimated Activity in A549 proliferation + stress assay: STRONG (clear dose-dependent restoration of cell viability from 1-5 μM upwards)
  restoration of A549 viability: restored the Taxol-induced loss of cell viability

## CC[C@H](C)[C@H](NC(=O)[C@H](CCCNC(=N)N)NC(=O)[C@H](CC(C)C)NC(=O)[C@@H](N)Cc1ccc(O)cc1)C(=O)N[C@H](C(=O)N[C@@H](CCC(N)=O)C(=O)N[C@H]1CSSC[C@@H](C(=O)NCC(=O)N[C@@H](Cc2ccccc2)C(=O)O)NC(=O)[C@H](CO)NC(=O)CNC(=O)[C@H](CCC(=O)O)NC(=O)[C@H](C(C)C)NC(=O)[C@H](CO)NC(=O)[C@H](CCCNC(=N)N)NC1=O)C(C)C [compound 1] (H-YLRIVQCRSVEGSCGF-OH; disulfide 7-14)
[2]
  EC50: 50 to 100 µM

## 60 (RALN) [compound 60]
[4]
  BAL IL-6 activity score: 2
  PMN activity score: 2
  Viral titre activity score: 2
[3]
  Estimated Activity in A549 proliferation + stress assay: WEAK (some or variable restoration of cell viability at 50-100 μM)

## 2 (CRSVEGSCGF; disulfide 1-8) [compound 2]
[4]
  PMN activity score: 2
  reducing the PMN infiltrate in BAL fluid, compared with the peptide of SEQ ID NO:38: as effective
[1]
  neuropathic pain in the Chung model: reduced neuropathic pain

## 42 (KALPRS) [compound 42]
[4]
  IL-6 levels in the BAL fluid: as effective
  viral titres: effective
  BAL IL-6 activity score: 2
  PMN activity score: 2
  Viral titre activity score: 2
  reducing the PMN infiltrate in BAL fluid, compared with the peptide of SEQ ID NO:38: as effective
[3]
  Estimated Activity in A549 proliferation + stress assay: STRONG (clear dose-dependent restoration of cell viability from 1-5 μM upwards)
  restoration of A549 viability: partially restore A549 viability

## CC(C)C[C@@H]1NC(=O)[C@H](C)NC(=O)[C@H](CCCNC(=N)N)NC(=O)[C@@H](N)CSSC[C@@H](C(=O)O)NC(=O)[C@H](CO)NC(=O)[C@H](CO)NC(=O)[C@H](CC(N)=O)NC1=O [compound 40] (H-CRALNSSC-OH; disulfide 1-8)
[2]
  EC50: 50 to 100 µM

## RALNSS [compound 39]
[2]
  EC50: > 200 µM

From patent US12492223B2, “Peptide compositions capable of binding lanthionine synthetase C-like protein (LanCl) and uses thereof” (priority 2021, dated 2025)
